# Experimental data published in USRE43029E1, “Process for preparing a creatine heterocyclic acid salt and method of use” (Bio-Engineered Supplements & Nutrition, Inc., priority 2003, dated 2011).
# Assays:
# [1] = cited from earlier work
# [2] = cited from earlier work; remark: listed apart in the source
# [3] = four 5 gram per day; 30 second bouts of maximal isokinetic cycling; cited from earlier work
# [4] = 20 grams a day for 5 days; five of the eight subjects; cited from earlier work
# [5] = in vivo; cited from earlier work
# [6] = TriCreatine Orotate method of use, 4 weeks post-workout oral supplementation; format: in vivo, human; settings: weight trained person, 5 grams orally post workout, end of 4 week period
# Text: In this example a experienced weight trained person orally consumes 5 grams of tricreatine orotate post workout for 4 weeks with beverage. Glucose or any insulin potentiating compound may added for even greater results. In this instance the tricreatine orotate is incorporated into free powder mixture of flavoring agents and D-glucose, which is then combined with water. Once in the plasma tricreatine orotate then exerts a synergistic lean tissue promoting effect due to the anabolic actions of creatine and orotic acid. The creatine enhances phophocreatine resynthesis and attracts water to intercellular component of the muscle cell, which in turn activates protein synthesis while the orotic acid promotes uridine phosphates and glycogen synthesis. The previously mentioned physiological functions lead to increases in lean body mass, strength, endurance, recovery and loss of fat tissue. At the end of the 4 week period the individual reported a 6 pound weight gain, a 20 pound increase in […] 1 repetition maximum bench press, and a 5 repetition increase in […] initial 70 percent maximum bench press. These increases contribute to the regulation of athletic function and thus lead to enhanced physical performance.
compound,measurement,setting,value
CN(CC(=O)O)C(=N)N.O [creatine monohydrate],rise in plasma creatine concentration,[1]; 1 gram dose,only a modest rise
same,time of mean peak plasma creatine,[1]; 5 gram dose,1 h
same,total creatine content of the quadriceps,[2]; 5 grams four to six times a day for 2 or more days,significant increase
same,creatine uptake,"[2]; first two days of supplementation, six 5 gram doses",32%
same,creatine taken up measured as phosphocreatine (PCr),[2]; in vivo,≥ 20%
CN(CC(=O)O)C(=N)N [creatine],peak power output and mean power output,[3],significantly increased
same,muscle total creatine concentration and phosphocreatine resynthesis,[4],substantially increased
"O=C(O)c1cc(=O)[nH]c(=O)[nH]1 [orotic acid, 1,2,3,6-Tetrahydro-2,6-dioxo-4-pyrimidecarboxylic acid]",growth and functional maturation of animals,[5],significant acceleration
Tricreatine orotate,increase in 1 repetition maximum bench press,[6],20 pound
same,increase in initial 70 percent maximum bench press,[6],5 repetition
same,weight gain,[6],6 pound
